Test: xn = mol fraction of the nth substance listed
Details: for electrical conductivity: 101 kPa; for viscosity: 100 kPa

CCCCCCCCCCCCCC[n+]1ccccc1.O=C([O-])C(O)c1ccccc1 + C[C@H](N)C(=O)O + O
electrical conductivity [S/m]
Details	293.15 K	298.15 K	303.15 K	308.15 K	313.15 K
x1 = 5.26e-06, x2 = 0.001799	0.00177	0.00202	0.00228	0.00255	0.00285
x1 = 6.85e-06, x2 = 0	0.00248	0.00278	0.00309	0.0034	0.0037
x1 = 7.23e-06, x2 = 0.0009002	0.00232	0.00263	0.00296	0.00329	0.0036
x1 = 1.107e-05, x2 = 0.001799	0.00339	0.00385	0.0043	0.00479	0.0053
x1 = 1.32e-05, x2 = 0.0009002	0.00408	0.00462	0.00517	0.0057	0.0063
x1 = 1.424e-05, x2 = 0	0.00472	0.00529	0.00587	0.0065	0.0071
x1 = 1.688e-05, x2 = 0.001799	0.00492	0.00558	0.00625	0.007	0.0077
x1 = 1.79e-05, x2 = 0.0009002	0.00545	0.00618	0.0069	0.0077	0.0084
x1 = 2.126e-05, x2 = 0	0.00671	0.0076	0.0084	0.0093	0.0101
x1 = 2.178e-05, x2 = 0.001799	0.00627	0.00713	0.008	0.0088	0.0098
x1 = 2.206e-05, x2 = 0.0009002	0.0066	0.0075	0.0084	0.0093	0.0102
x1 = 2.64e-05, x2 = 0.0009002	0.00784	0.0089	0.0099	0.011	0.0121
x1 = 2.686e-05, x2 = 0.001799	0.00759	0.0086	0.0097	0.0107	0.0118
x1 = 2.811e-05, x2 = 0	0.0086	0.0097	0.0108	0.0122	0.0131
x1 = 3.092e-05, x2 = 0.0009002	0.0091	0.0103	0.0115	0.0128	0.014
x1 = 3.158e-05, x2 = 0.001799	0.0088	0.01	0.0112	0.0124	0.0137
x1 = 3.46e-05, x2 = 0	0.0103	0.0116	0.0129	0.0145	0.0157
x1 = 3.653e-05, x2 = 0.0009002	0.0105	0.0119	0.0133	0.0148	0.0163
x1 = 3.702e-05, x2 = 0.001799	0.0101	0.0114	0.0128	0.0143	0.0158
x1 = 4.108e-05, x2 = 0	0.0117	0.0131	0.0146	0.0161	0.0179
x1 = 4.376e-05, x2 = 0.0009001	0.0119	0.0135	0.015	0.0168	0.0186
x1 = 4.392e-05, x2 = 0.001799	0.0113	0.0128	0.0143	0.016	0.0178
x1 = 4.811e-05, x2 = 0	0.0129	0.0144	0.0161	0.0179	0.0198
x1 = 5.045e-05, x2 = 0.0009001	0.0129	0.0146	0.0163	0.0184	0.0203
x1 = 5.136e-05, x2 = 0.001799	0.0124	0.0139	0.0156	0.0175	0.0195
x1 = 5.388e-05, x2 = 0	0.0137	0.0154	0.0172	0.0191	0.0211
x1 = 5.768e-05, x2 = 0.0009001	0.014	0.0158	0.0177	0.0198	0.022
x1 = 5.861e-05, x2 = 0.001799	0.0134	0.0151	0.0169	0.019	0.0211
x1 = 5.982e-05, x2 = 0	0.0145	0.0163	0.0182	0.0202	0.0224
x1 = 6.383e-05, x2 = 0.0009001	0.0148	0.0168	0.0188	0.021	0.0233
x1 = 6.559e-05, x2 = 0	0.0153	0.0172	0.0192	0.0213	0.0236
x1 = 6.569e-05, x2 = 0.001799	0.0143	0.0161	0.0181	0.0201	0.0224
x1 = 6.998e-05, x2 = 0.0009001	0.0157	0.0177	0.0198	0.0222	0.0246
x1 = 7.081e-05, x2 = 0	0.016	0.018	0.02	0.0223	0.0246
x1 = 7.222e-05, x2 = 0.001799	0.0151	0.0171	0.0192	0.0214	0.0236
x1 = 7.595e-05, x2 = 0.0009001	0.0165	0.0187	0.0209	0.0234	0.026
x1 = 7.604e-05, x2 = 0	0.0167	0.0187	0.0209	0.0232	0.0258
x1 = 7.839e-05, x2 = 0.001799	0.0159	0.018	0.0201	0.0225	0.0251
x1 = 8.072e-05, x2 = 0	0.0173	0.0194	0.0217	0.0241	0.0266

CCO + C[C@H](N)C(=O)[O-].C[N+](C)(C)CCO
x2 = 0
Details	viscosity [mPa·s]
288.13 K	1.15
289.34 K	1.12
290.55 K	1.1
291.74 K	1.06
292.92 K	1.03
294.1 K	1.01
295.28 K	0.98
296.45 K	0.96
297.63 K	0.93
298.8 K	0.9
299.98 K	0.88
301.16 K	0.85
302.33 K	0.82
303.51 K	0.8
304.68 K	0.77
305.86 K	0.73
307.04 K	0.71
308.21 K	0.68

CCO + C[N+](C)(C)CCC[N+]1(C)CCCCC1.N#C[N-]C#N.N#C[N-]C#N
x2 = 0
Details	viscosity [mPa·s]
293.15 K	1.19
303.15 K	0.991
313.15 K	0.828
323.15 K	0.705
333.15 K	0.593

CCO + C[N+](C)(C)CCC[n+]1ccccc1.N#C[N-]C#N.N#C[N-]C#N
x2 = 0
Details	viscosity [mPa·s]
293.15 K	1.19
303.15 K	0.991
313.15 K	0.828
323.15 K	0.705
333.15 K	0.593

Reference: the CheMixHub ionic liquid set
